According to article PMC9001643, “Conservation of the unusual dimeric JmjC fold of JMJD7 from Drosophila melanogaster to humans” (Scientific Reports, 2022):

Molecular target: T1, dmJMJD7 (Drosophila melanogaster, UniProt Q9VU77)
T1 construct: gene JMJD7; full-length dmJMJD7, aa 1–316, N-terminally His6-tagged
Experiment: crystal structure; SPE-MS inhibition assay with DRG1 peptide
Assay type: biochemical

T1 sequence (Q9VU77 whole entry, the tested form may be a part): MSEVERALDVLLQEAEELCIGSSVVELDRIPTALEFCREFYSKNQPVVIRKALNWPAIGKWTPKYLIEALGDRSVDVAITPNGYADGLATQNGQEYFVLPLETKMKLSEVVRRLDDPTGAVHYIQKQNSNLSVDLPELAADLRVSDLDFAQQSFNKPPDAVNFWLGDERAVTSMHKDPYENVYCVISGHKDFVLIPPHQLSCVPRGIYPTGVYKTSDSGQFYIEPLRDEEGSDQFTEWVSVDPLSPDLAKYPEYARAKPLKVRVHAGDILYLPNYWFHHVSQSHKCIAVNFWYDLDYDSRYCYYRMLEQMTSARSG

Row | IC50 | Structure (SMILES)
1 | 1340 nM | O=C(O)c1ccnc(C(=O)O)c1 [2,4-PDCA, pyridine-2,4-dicarboxylate]
2 | 4140 nM | C[C@@H](NC(=O)C(=O)O)C(=O)O [NODA, N-oxalyl-D-alanine]
3 | 300 nM | O=C(O)CNC(=O)C(=O)O [NOG, N-oxalylglycine]

Molecular target: T1, dmJMJD7
Experiment: crystal structure
Assay type: binding

Row | Structure (SMILES) | crystal structure
4 | O=C(O)CCC(=O)C(=O)O [2OG, 2-oxoglutarate] | crystals of His6-dmJMJD7.Mn complexed with its co-substrate 2OG or co-product succinate
5 | O=C(O)C(=O)N[C@H](Cc1ccccc1)C(=O)O [NOFD, N-oxalyl-D-phenylalanine] | dmJMJD7.N-oxalyl-D-phenylalanine (PDB: 7YXL)
6 | O=C(O)CCC(=O)O [succinate] | dmJMJD7.succinate (PDB: 7YXH)
